# Values of other authors in patent US10201584B1, “Compositions and methods for treating HCV” (AbbVie Inc., priority 2011, dated 2019).
# System: HCV
# Conditions: hepatitis C patients; background statement
smiles,measurement,value
NC(=O)c1ncn([C@@H]2O[C@H](CO)[C@@H](O)[C@H]2O)n1 [ribavirin],suppression of HCV levels / effectiveness of regimen,does not effectively suppress HCV levels
